# According to patent US12642786B2, “Methods, compositions and kits for treating multiple sclerosis and other disorders” (The Johns Hopkins University, priority 2018, dated 2026):
# Experiments:
# [1] = test system: EAE (MOG35-55 immunized mice); experiment: EAE, treatment initiated at clinical score of 1.0, clinical scoring; type: in vivo, C57BL/6J mice
# Method: Active EAE was induced in 8-12 wk-old female C57BL/6J mice that had been allowed to acclimatize to the animal facility for at least 1 wk. MOG35-55 peptide dissolved in PBS at a concentration of 2 mg/mL was mixed 1:1 with complete Freund's adjuvant to make an emulsion. On day 0, mice were immunized by injecting 50 μL of the emulsion s.c. into each of two sites on the lateral abdomen. In addition, on day 0 and again on day 2, mice were injected intraperitoneally with 250 ng pertussis toxin. Mice were weighed and scored beginning on day 7 post-immunization. Scoring was performed in a blinded manner according to the following scale:
# Bryo-1 was prepared by initially dissolving in 100% ethanol and then further diluting to 20% ethanol and 1% DMSO in PBS. The final concentration of bryo-1 was […] Mice were treated by i.p. injection of […] bryo-1 or an equal volume of vehicle control (20% ethanol and 1% DMSO in PBS) 3 d per week (Monday, Wednesday, Friday).
# In a second set of experiments, mice were randomized and treatment was begun when the mice reached a clinical score of 1.0 (corresponding to tail paralysis). In this paradigm, mice received their first treatment on the day they reached a score of 1.0, and subsequently were returned to a 3 d/week schedule in sync with the other animals.
# The effects of bryo-1 in two distinct therapeutic paradigms were analyzed. In both paradigms, treatments began after the onset of EAE, but the start of the treatments occurred at two different stages of the disease. In the first set of experiments, mice were randomized and treatment was initiated at the first clinical sign of motor weakness, corresponding to tail paralysis (FIG. 2A).
# [2] = test system: bone marrow-derived dendritic cells (BMDCs); experiment: BMDC CD40 and CD86 expression by flow cytometry; type: cell-based, C57BL/6J mice
# Method: All staining procedures were performed in the dark at room temperature. For analysis of surface marker expression on bone marrow-derived DCs, cells were first stained with LIVE/DEAD aqua (Life Technologies, L-34966) for 30 min at room temperature in PBS. Fc receptors were blocked with anti-CD16/CD32 (Biolegend, 101320) for the final 10 min of staining. The cells were then washed and stained with specific conjugated antibodies for the specified surface markers in FACS buffer (PBS supplemented with 2% FBS and 1 mM EDTA) for 30 min.
# Cells were analyzed by flow cytometry using a MACSQuant flow cytometer (Miltenyi Biotec). Flow data analysis was performed in FlowJo (FlowJo) or FlowLogic (Inivai).
# (§1) BMDCs were generated as described in Lutz, “An advanced culture method for generating large quantities of highly pure dendritic cells from mouse bone marrow,” 1999, J. Immunol. Methods 223:77-92, with minor modifications. Briefly, femurs were removed from 6-10-wk-old female C57BL/6J mice, cut on both ends, and marrow flushed with PBS. Bone marrow cells were then pelleted by centrifugation (500×g for 8 min), resuspended in red blood cell lysis buffer (Sigma) for 1 min, and quenched with excess PBS. After another centrifugation, cells were resuspended in complete RPMI (cRPMI) media consisting of RPMI-1640 with GlutaMAX™ supplement (Thermo Fisher Scientific) supplemented with 10% FBS, penicillin-streptomycin (Gibco), and 50 μM 2-mercaptoethanol (Sigma). On day 0, ˜2×10^6 cells were then seeded per 100-mm plate in 10 mL media containing 20 ng/mL rmGM-CSF (Peprotech). On day 3, an additional 10 mL fresh cRPMI media containing 20 ng/mL rmGM-CSF was added to each plate. On day 6, half the culture supernatant from each plate was removed and centrifuged, and the pelleted cells resuspended in 10 mL fresh cRPMI with 20 ng/mL rmGM-CSF and added back to the plates. On day 8, all nonadherent cells (representing the BMDC fraction) were collected, pelleted by centrifugation, resuspended in fresh cRPMI media with 20 ng/mL rmGM-CSF, and plated into 24-well dishes. These BMDCs were then treated overnight with or without LPS 100 ng/mL plus the indicated doses of bryo-1. The following day (day 9), these cells were then assayed by flow cytometry or cytokine ELISA.
# LPS-stimulated BMDCs = experiment: BMDC cytokine secretion by ELISA; type: cell-based, C57BL/6J mice
# Method: as §1
# After overnight treatment of BMDCs or mPMs with LPS 100 ng/mL±bryo-1, culture supernatants were collected and cytokine production was assayed using ELISA kits for IL-12 p70 (catalog #88-7121-22), IL-6 (catalog #88-7064-22), and IL-10 (catalog #88-7105-22) purchased from eBioscience, according to manufacturer's instructions. Plates were read at 450 nm on a tabletop plate reader.
# neurospheres = experiment: Neurospheres, staining for oligodendrocyte marker; type: cell-based; details: 20 nM every other day for 1 week
# Source text: We examined the effect of bryo-1 on neurospheres, which are neural stem cell-like cells.
# [3] = test system: corpus callosum remyelination; experiment: Cuprizone-induced demyelination, Black-Gold II myelin staining; type: in vivo, C57BL/6J mice; details: 30 μg/kg IP every other day from re-feeding, day 8 after re-feeding
# Method: Cuprizone-induced demyelination was elicited as described by Baxi et al., Glia (2017) 65:2087-098, with minor modification. Female C57BL/6J mice (8 weeks old) were fed 0.2% cuprizone for 5 weeks to induce demyelination of the corpus callosum and then returned to normal feed. The mice (n=2 per group) were then treated with either bryo-1 (30 μg/kg) or vehicle by IP injection every other day beginning on the first day of re-feeding with normal feed, and the extent of corpus callosum remyelination was assessed by Black-Gold II myelin staining on day 8 after re-feeding.
smiles,measurement,setting,value
"CCC/C=C/C=C/C(=O)OC1/C(=C/C(=O)OC)CC2CC(C(C)O)OC(=O)CC(O)CC3CC(OC(C)=O)C(C)(C)C(O)(CC4C/C(=C/C(=O)OC)CC(/C=C/C(C)(C)C1(O)O2)O4)O3 (stereo not drawn) [bryo-1, Bryostatin-1]",motor deficits and subsequent course of EAE,"[1]; 30 μg/kg i.p. 3 d per week, started at first clinical sign (tail paralysis, score 1.0)",substantially attenuated
same,peak clinical score vs vehicle-treated mice,[1]; treatment started at score 1.0,lower peak clinical score
same,recovery vs vehicle-treated mice,[1]; treatment started at score 1.0,faster recovery
same,CD86 expression in LPS-stimulated BMDCs,[2]; LPS 100 ng/mL,no effect
same,LPS-induced up-regulation of CD40,"[2]; LPS 100 ng/mL, bryo-1 at either 20 or 200 nM",abrogated
same,CD40 expression,"[2]; absence of LPS, overnight",no significant effect
same,CD86 expression,"[2]; absence of LPS, overnight",up-regulates CD86
same,LPS-induced secretion of IL-12,"LPS-stimulated BMDCs; BMDCs, LPS 100 ng/mL, bryo-1 10 nM, overnight",abrogated
same,secretion of IL-10,"LPS-stimulated BMDCs; BMDCs, LPS 100 ng/mL, overnight",significantly augmented
same,concentration with direct anti-inflammatory effects on DCs and macrophages (as low as),LPS-stimulated BMDCs; DCs and macrophages,10 nM
same,expression of the oligodendrocyte marker 04,neurospheres,increased expression
same,rate of remyelination (extent of Black-Gold II staining),[3],increased the rate of remyelination
